We go through 6 compounds from PMC11984924, “Dipeptidic Phosphonates: Potent Inhibitors of Pseudomonas aeruginosa Elastase B Showing Efficacy in a Murine Keratitis Model” (Advanced Science, 2025).

Where only a bound is given, the exact number is not on record here.

Data set [1] is described as follows: Metabolic stability in human liver S9 fraction. Format: in vitro ADME. To be noted: human liver S9, 1 µM. The method, then:
page 57: 3. Biological evaluation 3.1 In vitro inhibition assays […] MMPs, TACE). […] inhibitor screening kits were purchased from Sigma-Aldrich (Saint Louis, MO). MMPs along with the SensoLyte 520 Generic MMP Activity Kit Fluorimetric were purchased from AnaSpec (Fremont, CA, USA). The assays were performed according to the guidelines of the respective manufacturer. Fluorescence signals were measured using a CLARIOstar plate reader (BMG Labtech, Ortenberg, Germany). 3.2 Kinetic solubility […] well were transferred into another 96-well plate and mixed with 148.5 µL of PBS. Plates were shaken for 5 min at 600 rpm at room temperature (r.t.), and the absorbance at 620 nm was measured. Absorbance values were normalized by blank subtraction and plotted using GraphPad Prism 8.4.2 (GraphPad Software, San Diego, CA, USA). Solubility (S) was […] 3.3 Lipophilicity determination LogD7.4 was analyzed using an HPLC−based method. The UV retention time of reference […] Linear […] Analysis was performed using a Vanquish Flex HPLC system with variable wavelength detector (Thermo Fisher, Dreieich, Germany) with the following conditions: EC150/2 NUCLEODUR C18 Pyramid column, 5 μM (Macherey Nagel, Düren, Germany); eluent A: 50 mM NH4OAc pH 7.4, eluent B: acetonitrile, and flow: 0.6 mL/min. […] 3.4 Metabolic stability in liver S9 fractions For the evaluation of combined phase I and phase II metabolic stability, the compound (1 μM) was incubated with 1 mg/mL pooled mouse liver S9 fraction (C57BL/6, Xenotech, Kansas Cit y, USA) or human liver S9 fraction (Corning, USA), 2 mM NADPH, 1 mM UDPGA, 10 mM MgCl2, 5 mM GSH and 0.1 mM PAPS at 37 °C for 120 min. The metabolic stability of testosterone, verapamil and ketoconazole were determined in parallel to confirm the enzymatic activity of S56 page 58: mouse S9 fractions, for human S9 testosterone, diclofenac and propranolol were used. The incubation was stopped after defined time points by precipitation of aliquots of S9 enzymes […] Samples were stored on ice until the end of the incubation and precipitated protein was removed by centrifugation (15 min, 4 °C, 4,000 g). Concentration of the remaining test compound at the different time points was analyzed by HPLC-MS/MS (TSQ Quantum Access MAX, Thermo Fisher, Dreieich, Germany) and used to determine half -life (t1/2) and intrinsic clearance (Clint). Species profiling was conducted as above using 0.5 mg/mL pooled mouse, rat or minipig liver microsomes (Xenotech, Kansas City, USA) with 2 mM NADPH and 10 mM MgCl2 and testosterone, verapamil and ketoconazole as reference compounds. 3.5 Plasma stability To determine stability in plasma, the compound (1 µM) was incubated with pooled CD -1 mouse/human/Wistar rat or Göttingen minipig plasma (Neo Biotech, Nanterre, France). Samples were taken by mixing aliquots with 4 volumes of acetonitrile containing internal standard (125 nM diphenhydramine). The plasma stability of procain, propantheline and diltiazem were determined in parallel to confirm the enzymatic activity. Samples were stored on ice until the end of the incubation and precipitated protein was removed by centrifugation (15 min, 4 °C, 4,000 g, two centrifugation steps). Concentration of the remaining test compound at the different time points was analyzed by HPLC-MS/MS (TSQ Quantum Access MAX, Thermo Fisher, Dreieich, Germany) and used to determine half-life (t1/2). Table S2: Additional in vitro ADMET data for selected dipeptides. n.d.: not determined. […] Compound Solubility PBS pH 7.4 [µM] Mouse Human Mouse Human […] S57

Data set [2] addresses T1, MMP-2 (Homo sapiens, UniProt P08253).
T1 construct: purchased AnaSpec (Fremont, CA, USA)
T1 sequence (P08253 110-660): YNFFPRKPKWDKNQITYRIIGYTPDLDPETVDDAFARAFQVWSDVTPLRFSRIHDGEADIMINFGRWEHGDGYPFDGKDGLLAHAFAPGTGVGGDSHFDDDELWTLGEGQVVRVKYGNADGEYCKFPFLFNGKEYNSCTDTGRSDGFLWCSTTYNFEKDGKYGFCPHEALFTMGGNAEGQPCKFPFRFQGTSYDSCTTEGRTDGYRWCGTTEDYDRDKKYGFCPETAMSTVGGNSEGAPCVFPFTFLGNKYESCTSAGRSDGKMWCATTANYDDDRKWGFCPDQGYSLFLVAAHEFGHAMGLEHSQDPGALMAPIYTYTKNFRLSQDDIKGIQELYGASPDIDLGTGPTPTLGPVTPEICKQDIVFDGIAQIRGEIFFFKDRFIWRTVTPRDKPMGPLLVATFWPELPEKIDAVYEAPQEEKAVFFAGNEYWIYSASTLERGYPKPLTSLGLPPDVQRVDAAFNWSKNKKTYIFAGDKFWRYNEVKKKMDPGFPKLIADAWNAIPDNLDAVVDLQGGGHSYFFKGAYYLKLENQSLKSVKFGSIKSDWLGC
The data set can be described thus: MMP-2 inhibition (off-target). Format: biochemical. The following applies: read-out: MMP-2 % inhibition at 100 µM. On the procedure: 3.1 In vitro inhibition assays […]
MMPs, TACE). All in vitro inhibition assays were performed as described previously.[10] TACE inhibitor screening kits were purchased from Sigma-Aldrich (Saint Louis, MO). MMPs along with the SensoLyte 520 Generic MMP Activity Kit Fluorimetric were purchased from AnaSpec (Fremont, CA, USA). The assays were performed according to the guidelines of the respective manufacturer. Fluorescence signals were measured using a CLARIOstar plate reader (BMG Labtech, Ortenberg, Germany). […]
3.8 Test against zinc metalloproteases MMP1–3 and TACE (ADAM17), and testing of
We selected a panel of human off -targets, including three human matrix metalloproteases (MMP-1, -2 and -3) and TACE (ADAM-17). These assays were performed as described previously.[3] The TACE inhibitor screening kit was purchased from Sigma -Aldrich (Saint Louis, MO). MMPs along with the SensoLyte 520 Generic MMP Activity Kit Fluorimetric were purchased from AnaSpec (Fremont, CA, USA). The assays were performed according to the guidelines of the respective manufacturer. Fluorescence signals were measured using a CLARIOstar plate reader (BMG Labtech, Ortenberg, Germany). […]
Table S6: Percent (%) inhibition of three MMPs (1 –3) and TACE (ADAM17) in presence of selected LasB inhibitors at 100 µM. Results are means and SD of at least two independent experiments. […]
Compound [% inhibition at [% inhibition at [% inhibition at [% inhibition at 100

Data set [3] has as its system HepG2 cells. The data set can be described thus: Cytotoxicity HepG2. Format: cell-based. To be noted: Homo sapiens, HepG2, read-out: HepG2 % inhibition at 100 µM (metabolic activity), 48 hours. On the procedure:
HepG2 (human hepatocellular carcinoma), HEK293 (human embryonal kidney) and A549
(human lung carcinoma) cells (2x10^5 cells per well) were seeded in 24-well in flat-bottomed
plates. Culturing of cells, incubations and OD measurements were performed as described
previously with small modifications.[14] Twenty-four hours after seeding the cells the incubation
was started by the addition of compounds in a final DMSO concentration of 1%. The living cell
mass was determined after 48 hours in a PHERAstar microplate reader (BMG labtech,
Ortenberg, Germany). Two independent measurements were performed for each compound.

In data set [1], `CC(=O)c1ccc(NC(=O)[C@@H](NC(=O)[C@@H](CC(C)C)P(=O)(O)O)C(C)C)cc1` [(R)‐30] gave a microsomal CLint at 1 µM of less than 5.8 µL/min/mg. Further, the inhibition at 100 µM in data set [2] and in data set [3] was less than 10% in each case.

`CC(C)CC(C(=O)N[C@H](C(=O)Nc1ccc(Cl)c(Cl)c1)C1CCCCC1)P(=O)(O)O` (stereo partly drawn) [compound 14] registered an intrinsic metabolic clearance (microsomal CLint) at 1 µM in data set [1] of less than 5.8 µL/min/mg. Moreover, the inhibition at 100 µM in data set [2] was less than 10%; in data set [3], 13%.

As to `CC(=O)c1ccc(NC(=O)[C@@H](NC(=O)C(CC(C)C)P(=O)(O)O)C(C)C)cc1` (stereo partly drawn) [compound 30], the microsomal CLint at 1 µM in data set [1] was less than 5.8 µL/min/mg. Also, the inhibition at 100 µM in data set [2] and in data set [3] was less than 10% throughout.

Compound `CC(C)CC(C(=O)N[C@H](C(=O)Nc1ccc(Cl)c(Cl)c1)C(C)C)P(=O)(O)O` (stereo partly drawn) [compound 9] showed a microsomal CLint at 1 µM in data set [1] of less than 5.8 µL/min/mg. For the same compound, the inhibition at 100 µM in data set [2] and in data set [3] was less than 10% each time.

Take `CC(C)C[C@H](C(=O)N[C@H](C(=O)Nc1ccc(-n2ccnc2)cc1)C(C)C)P(=O)(O)O` [(R)‐36]: in data set [1], the microsomal CLint at 1 µM was less than 5.8 µL/min/mg. Also, the inhibition at 100 µM in data set [2] and in data set [3] was less than 10% each time.

As to `CC(C)CC(C(=O)N[C@H](C(=O)Nc1ccc(Cl)c(Cl)c1)C1CCC1)P(=O)(O)O` (stereo partly drawn) [compound 13], the microsomal CLint at 1 µM in data set [1] is less than 5.8 µL/min/mg. Further, the inhibition at 100 µM in data set [2] and in data set [3] was less than 10% each time.

Usually microsomal CLint stands for a measure of how fast metabolising enzymes remove a compound, apart from limits set by blood flow. Read a high microsomal CLint as faster metabolism. As a reminder, the inhibition is the percentage by which the read-out fell short of the control.
